Laboratory results as given in US20240010606A1, “FUMARATE DERIVATIVES AND THEIR MEDICAL USE” (Sitryx Therapeutics Limited, priority 2020, published 2024).
pEC50, pIC50: −log10 of the molar value. Counter-ions that a name gives are not always drawn.

Key:
[1] = Hepatocyte stability assay, mouse; format: in vitro ADME; conditions: mouse, cryopreserved hepatocytes, 10 μM compound
Excerpt: (§1) Biological Example 3—Hepatocyte Stability Assay
(§2) Defrosted cryo-preserved hepatocytes (viability >70%) are used to determine the metabolic stability of a compound via calculation of intrinsic clearance (CIint; a measure of the removal of a compound from the liver in the absence of blood flow and cell binding). Clearance data are particularly important for […] as they can be used in combination with in vivo data to predict the half-life and oral bioavailability of a drug.
(§3) The metabolic stability in hepatocytes assay involves a time-dependent reaction using both positive and negative controls. The cells must be pre-incubated at 37° C. then spiked with test compound (and positive control); samples taken at pre-determined time intervals are analysed to monitor the change in concentration of the initial drug compound over 60 minutes. A buffer incubation reaction (with no hepatocytes present) acts as a negative control and two cocktail solutions, containing compounds with known high and low clearance values (verapamil/7-hydroxycoumarin and propranolol/diltiazem), act as positive controls. • 1. The assay is run with a cell concentration of 0.5×10^6 cells/mL in Leibovitz buffer. • 2. All compounds and controls are run in duplicate. • 3. Compound concentration is 10 μM. • 4. All compounds and controls are incubated with both cells and buffer to show turnover is due to hepatic metabolism. • 5. All wells on the incubation plate will have 326.7 μL of either cells or buffer added. • 6. Prior to assay, cell and buffer-only incubation plates are preincubated for 10 mins at 37° C. • 7. The assay is initiated by adding compounds, 3.3 μL of 1 mM in 10% DMSO-90% Buffer; final DMSO concentration is 0.1%. • 8. Samples are taken at regular timepoints (0, 5, 10, 20, 40, 60 min) until 60 mins. • 9. Sample volume is 40 μL and it is added to 160 μL of crash solvent (acetonitrile with internal standard) and stored on ice. • 10. At the end of the assay, the crash plates are centrifuged at 3500 rpm for 20 mins at 4° C. • 11. 80 μL of clear supernatant is removed and mixed with 80 μL of deionised water before being analysed by LC-MS/MS.
(§4) Raw LC-MS/MS data are exported to, and analysed in, Microsoft Excel for determination of intrinsic clearance. The percentage remaining of a compound is monitored using the peak area of the initial concentration as 100%. Intrinsic clearance and half-life values are calculated using a graph of the natural log of percentage remaining versus the time of reaction in minutes. Half-life (min) and intrinsic clearance (CIint in μL min^−1 10^−6 cells) values are calculated using the gradient of the graph (the elimination rate constant, k) and Equations 1 and 2.

hepatocytes [2] = assay: Hepatocyte stability assay, mouse; format: in vitro ADME; conditions: 10 μM compound
Excerpt: as §1, §2, §3, §4

[3] = Hepatocyte stability assay, human; format: in vitro ADME; conditions: cryopreserved hepatocytes, 10 μM compound
Excerpt: as §1, §2, §3, §4

hepatocytes [4] = assay: Hepatocyte stability assay, human; format: in vitro ADME; conditions: 10 μM compound
Excerpt: as §1, §2, §3, §4

IL-1β = assay: THP-1 AlphaLISA IL-1β cytokine assay; format: cell-based; conditions: Homo sapiens, differentiated THP-1 cells
Procedure: (§5) Biological Example 1—THP-1 AlphaLISA IL-1β and IL-6 Cytokine Assay Measuring Inhibitory Effects on IL-1, and IL-6 Cytokine Output from THP-1s The cytokine inhibition profiles of compounds of formula (I) were determined in a differentiated THP-1 cell assay. All assays were performed in RPMI-1640 growth medium (Gibco), supplemented with 10% fetal bovine serum (FBS; Gibco), 1% penicillin-streptomycin and 1% sodium pyruvate unless specified otherwise. The IL-1β and IL-6 cytokine inhibition assays were each run in a background of differentiated THP-1 cells as described below. All reagents described were from Sigma-Aldrich unless specified otherwise. Compounds were prepared as 10 mM DMSO stocks. THP-1 cells were expanded as a suspension up to 80% confluence in appropriate growth medium. Cells were harvested, suspended, and treated with an appropriate concentration of phorbol 12-myristate 13-acetate (PMA) over a 72 hr period (37° C./5% CO2). Following 72 hrs of THP-1 cell incubation, cellular medium was removed and replaced with fresh growth media containing 1% of FBS. Working concentrations of compounds were prepared separately in 10% FBS treated growth medium and pre-incubated with the cells for 30 minutes (37° C./5% CO2). Following the 30 minute compound pre-incubation, THP-1s were treated with an appropriate concentration of LPS and the THP-1s were subsequently incubated for a 24 hr period (37° C./5% CO2). An appropriate final concentration of Nigericin was then dispensed into the THP-1 plates and incubated for 1 hour (37° C./5% CO2) before THP-1 supernatants were harvested and collected in separate polypropylene 96-well holding plates. Reagents from each of the IL-1β and IL-6 commercial kits (Perkin Elmer) were prepared and run according to the manufacturer's instructions. Subsequently, fluorescence signal detection in a microplate reader was measured (EnVision® Multilabel Reader, Perkin Elmer). Percentage inhibition was calculated per cytokine by normalizing the sample data to the high and low controls used within each plate (+/−LPS respectively). Percentage inhibition was then plotted against compound concentration and the 50% inhibitory concentration (IC50) was determined from the resultant concentration-response curve.

NRF2 = NRF2 activation assay (DiscoverX PathHunter NRF2 translocation kit, U2OS cells); format: cell-based
Procedure: Biological Example 2—NRF2 Activation Assay Measuring Compound Activation Effects on the Anti-Inflammatory Transcription Factor NRF2 in DiscoverX PathHunter NRF2 Translocation Kit Potency and efficacy of compounds of formula (I) against the target of interest to activate NRF2 (nuclear factor erythroid 2-related factor 2) were determined using the PathHunter NRF2 translocation kit (DiscoverX). The NRF2 translocation assay was run using an engineered recombinant cell line, utilising enzyme fragment complementation to determine activation of the Keap1-NRF2 protein complex and subsequent translocation of NRF2 into the nucleus. Enzyme activity was quantified using a chemiluminescent substrate consumed following the formation of a functional enzyme upon PK-tagged NRF2 translocation into the nucleus. Additionally, a defined concentration of dimethyl fumarate was used as the ‘High’ control to normalise test compound activation responses to. U2OS PathHunter eXpress cells were thawed from frozen prior to plating. Following plating, U2OS cells were incubated for 24 hrs (37° C./5% CO2) in commercial kit provided cell medium. Following 24 hrs of U2OS incubation, cells were directly treated with an appropriate final concentration of compound. Following compound treatment, the U2OS plates were incubated for a further 6 hours (37° C./5% CO2) before detection reagent from the PathHunter NRF2 commercial kit was prepared and added to test plates according to the manufacturer's instructions. Subsequently, the luminescence signal detection in a microplate reader was measured (PHERAstar®, BMG Labtech). Percentage activation was calculated by normalising the sample data to the high and low controls used within each plate (+/−DMF). Percentage activation/response was then plotted against compound concentration and the 50% activation concentration (EC50) was determined from the plotted concentration-response curve.

IL-6 = assay: THP-1 AlphaLISA IL-6 cytokine assay; format: cell-based; conditions: Homo sapiens, Table 2, compounds of formula (II)
Procedure: as §5

[5] = +GSH, normalised to dimethyl fumarate high control, Table 3
[6] = −GSH, normalised to dimethyl fumarate high control, Table 3
[7] = Table 2, compounds of formula (II)
[8] = +GSH, Table 4, compounds of formula (II)
[9] = −GSH, Table 4, compounds of formula (II)
[10] = THP-1, differentiated THP-1 cells

SMILES	half-life at 10 μM ([1]; Table 5, read-out: T½)	CIint (hepatocytes [2]; Table 5)	half-life at 10 μM ([3]; Table 5, read-out: T½)	CIint (hepatocytes [4]; Table 5)	pIC50 (IL-1β; LPS then Nigericin, Table 1)	half-life at 10 μM ([1]; Table 6, read-out: T½)	CIint (hepatocytes [2]; Table 6)	CIint (hepatocytes [4]; Table 6)	pIC50 (IL-1β; [7])	pEC50 (NRF2; [8])	NRF2 activation Emax (NRF2; [8])	pEC50 (NRF2; [9])	NRF2 activation Emax (NRF2; [9])	also measured
C[C@H](OC(=O)/C=C/C(=O)OC1CCCCCCC1)C(=O)O [Example 6, (S,E)-2-((4-(cyclooctyloxy)-4-oxobut-2-enoyl)oxy)propanoic acid]	5 to 10 min	++ (++ means 200-277)	30 to 100 min	++++ (++++ means <50)	> 5.60	–	–	–	–	–	–	–	–	pEC50 (NRF2; +GSH, Table 3): 4.70 to 5.22; NRF2 activation Emax (NRF2; [5]): + (+ means >17.1-99); pEC50 (NRF2; −GSH, Table 3): > 5.70; NRF2 activation Emax (NRF2; [6]): ++++ (++++ means 200-250%)
CC(C)(COC(=O)/C=C/C(=O)OC1CCCCCCC1)C(=O)O [Example 7, (E)-3-((4-(cyclooctyloxy)-4-oxobut-2-enoyl)oxy)-2,2-dimethylpropanoic acid]	< 5 min	+ (+ means >277)	5 to 29 min	+++ (+++ means 50-149)	> 5.60	–	–	–	–	–	–	–	–	pEC50 (NRF2; +GSH, Table 3): 4.70 to 5.22; NRF2 activation Emax (NRF2; [5]): + (+ means >17.1-99); pEC50 (NRF2; −GSH, Table 3): > 5.70; NRF2 activation Emax (NRF2; [6]): ++++ (++++ means 200-250%)
O=C(O)/C=C/C(=O)OC1CC2(CCC2)C1 [Intermediate 7, (E)-4-oxo-4-(spiro[3.3]heptan-2-yloxy)but-2-enoic acid]	–	–	–	–	–	5 to 29 min	++ (++ means >30-110)	+++ (+++ means >15-30)	4.52 to 5.22	> 4.64	+++ (+++ means >114-150%)	> 4.64	++++ (++++ means >150%)	half-life at 10 μM ([3]; Table 6, read-out: T½): 30 to 100 min
CCCCCC[C@@H](C)OC(=O)/C=C/C(=O)OCC(=O)O [Example 13, 2-[(E)-4-[(1R)-1-methylheptoxy]-4-oxo-but-2-enoyl]oxyacetic acid]	< 5 min	+ (+ means >277)	5 to 29 min	+++ (+++ means 50-149)	5.21 to 5.60	–	–	–	–	–	–	–	–	pEC50 (NRF2; +GSH, Table 3): 4.00 to 4.70; NRF2 activation Emax (NRF2; [5]): ++ (++ means 100-149); pEC50 (NRF2; −GSH, Table 3): > 5.70; NRF2 activation Emax (NRF2; [6]): +++ (+++ means 150-199%)
O=C(O)COC(=O)/C=C/C(=O)OC1CC2(CCC2)C1 [Example 9, (E)-2-((4-oxo-4-(spiro[3.3]heptan-2-yloxy)but-2-enoyl)oxy)acetic acid]	< 5 min	+ (+ means >277)	30 to 100 min	++++ (++++ means <50)	5.21 to 5.60	–	–	–	–	–	–	–	–	–
O=C(O)/C=C/C(=O)OC1(c2ccc(C(F)(F)F)s2)CCC1 [Intermediate 36, (E)-4-oxo-4-(1-(5-(trifluoromethyl)thiophen-2-yl)cyclobutoxy)but-2-enoic acid]	–	–	–	–	–	30 to 100 min	++ (++ means >30-110)	++++ (++++ means 5-15)	> 5.22	> 4.64	++ (++ means >87-114%)	> 4.64	+++ (+++ means >114-150%)	half-life at 10 μM ([3]; Table 6, read-out: T½): > 100 min
COC(=O)/C=C/C(=O)OCCN1C(=O)CCC1=O [2-(2,5-Dioxopyrrolidin-1-yl)ethyl methyl fumarate, reference compound]	< 5 min	>277 μL min^−1 10^−6 cells	< 5 min	>277 μL min^−1 10^−6 cells	5.21	< 5 min	>277 μL min^−1 10^−6 cells	>277 μL min^−1 10^−6 cells	–	–	–	–	–	T½ (hepatocytes [4]; Table 6): <5 min
O=C(O)/C=C/C(=O)OC1CCCCCCC1 [Intermediate 6, (E)-4-(cyclooctyloxy)-4-oxobut-2-enoic acid]	–	–	–	–	–	5 to 29 min	++ (++ means >30-110)	++++ (++++ means 5-15)	4.52 to 5.22	> 4.64	++++ (++++ means >150%)	> 4.64	++++ (++++ means >150%)	half-life at 10 μM ([3]; Table 6, read-out: T½): > 100 min
COC(=O)/C=C/C(=O)O [monomethyl fumarate, Monomethyl fumarate, reference compound]	–	–	–	–	–	–	–	–	< 4.00	4.32	87%	4.64	114%	pIC50 (IL-6; [10]): < 4.00
O=C(O)COC(=O)/C=C/C(=O)OC1CCCCCC1 [Example 10, (E)-2-((4-(cycloheptyloxy)-4-oxobut-2-enoyl)oxy)acetic acid]	< 5 min	+ (+ means >277)	30 to 100 min	++++ (++++ means <50)	> 5.60	–	–	–	–	–	–	–	–	–
O=C(O)/C=C/C(=O)OC1(c2ccc(Br)cn2)CCC1 [Intermediate 23, (E)-4-(1-(5-bromopyridin-2-yl)cyclobutoxy)-4-oxobut-2-enoic acid]	–	–	–	–	–	–	–	–	4.52 to 5.22	–	–	–	–	pIC50 (IL-6; differentiated THP-1 cells): 4.52 to 5.22
O=C(O)/C=C/C(=O)OC1(c2ccccc2C(F)(F)F)CCC1 [Intermediate 11, (E)-4-oxo-4-(1-(2-(trifluoromethyl)phenyl)cyclobutoxy)but-2-enoic acid]	–	–	–	–	–	–	–	–	4.00 to 4.30	–	–	–	–	pIC50 (IL-6; [10]): < 4.00
